According to patent US20110165136A1, “Novel Herbal Composition for Treatment of Psoriasis and Other Skin Disorders” (HIMALAYA GLOBAL HOLDINGS LTD., priority 2010, published 2011):

System: Mouse tail
Experiment: Topical anti-psoriatic activity by Mouse tail test
Format: in vivo
Settings: follow up study, 0.005%
Text: Pharmacological Screening of the Extracts and Oils for Topical Anti-Psoriatic Activity by Mouse Tail Test The composite extracts, oils blends and individual alcohol extracts were subjected to screening for evaluation of Anti-psoriatic activity by Mouse tail test and the results are summarized as FIG. 1-4.

C=C1/C(=C\C=C2/CCC[C@]3(C)[C@@H]([C@H](C)/C=C/[C@@H](O)C4CC4)CC[C@@H]23)C[C@@H](O)C[C@@H]1O [Calcipotriol]
para to orthokeratosis conversion: not found to be statistically significant
